Assay [1] has as its target T1, CDK9/CycT1 (Homo sapiens, UniProt P50750). As to the kind of experiment: Off-chip mobility shift assay (MSA) on CDK9/CycT1. Further details: Full-length human CDK9 [1-372(end) amino acids of; host or cells: baculovirus expression system. Particulars: 4-point concentration (0.0016, 0.008, 0.04, 0.2 uM), ATP 10 μM, reaction time 5 hours, read-out: CDK9/CycT1/nM (inhibitory activity). The class given is biochemical. The protocol: Prepare 100× concentrated Test compound stock solutions with DMSO. Then, Dilute the solution 25 times with Assay Buffer (20 mM HEPES, 0.01% Triton X-100, 2 mM DTT, pH7.5) to prepare 4× test compound solutions.
Test compounds were evaluated at 4-point concentration (0.0016, 0.008, 0.04, 0.2 uM). • 1) Mix 5 μL of 4× test compound solution with 5 μL of 4× substrate/ATP/Metal solution and 10 μL of 2× kinase solution in 384-well polypropylene plate. Incubate for 5 hours at room temperature. • 2) Add 70 μL of Termination Buffer (QuickScout Screening Assist MSA; Carna Biosciences) to stop the reaction. • 3) Separate and detect unphosphorylated/phosphorylated substrate peptides in the reactant using LabChip system (Perkin Elmer). • 4) Evaluate kinase reaction from product ratio (P/(P+S)) calculated by peak height of unphosphorylated substrate(S) and peak height of phosphorylated substrate (P).

For assay [2], the system named is MV-4-11 (human myelomonocytic leukemia cells). As to the kind of experiment: CCK-8 cell proliferation assay, MV-4-11. The class given is cell-based. Conditions: MV4-11, 24 h incubation, 11 concentrations from 5000 nM, 3-fold, read-out: MV-4-11 cell proliferation IC50 (class). (In general: Formazan colour is commonly taken as a measure of viable cells.)
The target of assay [3] is T1, CDK9/CycT1. The experiment in a line: ADP-Glo kinase assay on CDK enzymatic activity, CDK9/CycT1. The class given is biochemical. Conditions: 10 concentrations from 10 μM, 4-fold, 60 min room temperature. In outline:
(§1)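 Steps: compound (10 μM top, 4-fold series) plus kinase, 10 min RT; add substrate/ATP mix, 60 min RT; ADP-Glo reagent 40 min; detection reagent 40 min; read luminescence. Inhibition referenced to AZD4573 (1 μM) and DMSO vehicle; IC50 by nonlinear fit.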

In assay [4] the target is CDK5/p25NCK (Homo sapiens, UniProt Q00535). The experiment in a line: ADP-Glo kinase assay on CDK enzymatic activity, CDK5/p25NCK. The class given is biochemical. Conditions: 10 concentrations from 10 μM, 4-fold, 60 min room temperature. In outline: as §1
Chain of CDK5/p25NCK (Q00535 whole entry, species assumed): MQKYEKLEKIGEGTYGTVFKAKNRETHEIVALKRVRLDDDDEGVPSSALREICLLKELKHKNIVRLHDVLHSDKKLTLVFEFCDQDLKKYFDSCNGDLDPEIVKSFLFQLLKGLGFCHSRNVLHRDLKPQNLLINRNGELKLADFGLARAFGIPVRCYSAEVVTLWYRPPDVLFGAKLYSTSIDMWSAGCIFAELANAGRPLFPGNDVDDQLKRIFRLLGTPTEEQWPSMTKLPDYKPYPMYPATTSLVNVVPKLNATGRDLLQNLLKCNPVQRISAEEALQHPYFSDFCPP
Chain of CDK5/p25NCK (Q15078 99-307 partner limits assumed, species assumed): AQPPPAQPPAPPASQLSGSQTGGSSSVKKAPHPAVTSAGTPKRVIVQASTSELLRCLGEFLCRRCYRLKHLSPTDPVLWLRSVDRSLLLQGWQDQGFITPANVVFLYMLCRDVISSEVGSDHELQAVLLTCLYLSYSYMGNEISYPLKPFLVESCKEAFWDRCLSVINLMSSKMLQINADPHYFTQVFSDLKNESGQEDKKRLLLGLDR
For orientation: ADP-Glo turns the ADP formed in a reaction into a luminescent signal.

Assay [5] concerns the target CDK3/CycE1 (Homo sapiens, UniProt Q00526). As to the kind of experiment: ADP-Glo kinase assay on CDK enzymatic activity, CDK3/CycE1. In kind it is biochemical. Conditions: 10 concentrations from 10 μM, 4-fold, 60 min room temperature. In outline:
as §1

For assay [6], the target named is CDK2/CycA2 (Homo sapiens, UniProt P24941). As to the kind of experiment: ADP-Glo kinase assay on CDK enzymatic activity, CDK2/CycA2. Particulars: 10 concentrations from 10 μM, 4-fold, 60 min room temperature. In kind it is biochemical. A digest of the protocol: as §1
In assay [7] the target is CDK1/CycE1 (Homo sapiens, UniProt P06493). The experiment in a line: ADP-Glo kinase assay on CDK enzymatic activity, CDK1/CycE1. In kind it is biochemical. Particulars: ADP-Glo; 10 concentrations from 10 μM, 4-fold; 60 min room temperature; read-out: CDK1/CycE1/nM (IC50). A digest of the protocol:
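Compounds in 10-point 4-fold dilutions from 10 μM final, preincubated 10 min with kinase, then substrate/ATP added; 60 min reaction at room temperature. ADP-Glo luminescence read.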

Molecules are shown by their SMILES.

The results in this text go back to patent US20250163043A1 (TRANSTHERA SCIENCES (NANJING), INC., priority 2021, published 2025).

Chain of CDK3/CycE1 (Q00526 whole entry, species assumed): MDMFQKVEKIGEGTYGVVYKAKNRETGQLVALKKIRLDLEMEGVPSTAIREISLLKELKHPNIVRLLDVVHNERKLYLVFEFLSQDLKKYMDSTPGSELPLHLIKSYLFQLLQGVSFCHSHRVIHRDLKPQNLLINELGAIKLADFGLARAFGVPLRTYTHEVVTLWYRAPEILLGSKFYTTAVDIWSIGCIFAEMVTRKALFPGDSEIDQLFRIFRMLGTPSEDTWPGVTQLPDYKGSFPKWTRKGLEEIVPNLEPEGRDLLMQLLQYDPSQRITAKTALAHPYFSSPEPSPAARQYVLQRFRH
Chain of CDK3/CycE1 (P24864 whole entry partner, species assumed): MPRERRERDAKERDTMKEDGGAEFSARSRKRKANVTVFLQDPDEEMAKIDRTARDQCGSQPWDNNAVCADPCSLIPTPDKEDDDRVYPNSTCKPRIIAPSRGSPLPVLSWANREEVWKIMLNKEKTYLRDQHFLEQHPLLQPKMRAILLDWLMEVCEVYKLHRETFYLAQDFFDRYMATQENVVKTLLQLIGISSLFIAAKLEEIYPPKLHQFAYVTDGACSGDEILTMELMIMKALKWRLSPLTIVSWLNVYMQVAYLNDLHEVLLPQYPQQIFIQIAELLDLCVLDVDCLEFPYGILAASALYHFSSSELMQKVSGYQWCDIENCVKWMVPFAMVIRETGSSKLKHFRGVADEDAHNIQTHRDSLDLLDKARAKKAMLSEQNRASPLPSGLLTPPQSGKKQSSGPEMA
Chain of CDK1/CycE1 (P06493 whole entry, species assumed): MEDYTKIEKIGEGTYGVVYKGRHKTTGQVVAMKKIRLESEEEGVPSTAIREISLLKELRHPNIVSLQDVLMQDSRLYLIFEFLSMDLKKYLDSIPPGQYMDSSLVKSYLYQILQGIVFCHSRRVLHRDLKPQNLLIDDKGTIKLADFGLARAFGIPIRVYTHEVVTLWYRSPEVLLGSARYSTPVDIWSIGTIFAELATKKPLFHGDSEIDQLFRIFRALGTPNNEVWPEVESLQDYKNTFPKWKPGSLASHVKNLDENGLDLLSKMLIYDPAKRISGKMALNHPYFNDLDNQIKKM
Chain of CDK1/CycE1 (P24864 whole entry partner, species assumed): as the sequence (P24864 whole entry partner, species assumed) above
T1 sequence (P50750 whole entry): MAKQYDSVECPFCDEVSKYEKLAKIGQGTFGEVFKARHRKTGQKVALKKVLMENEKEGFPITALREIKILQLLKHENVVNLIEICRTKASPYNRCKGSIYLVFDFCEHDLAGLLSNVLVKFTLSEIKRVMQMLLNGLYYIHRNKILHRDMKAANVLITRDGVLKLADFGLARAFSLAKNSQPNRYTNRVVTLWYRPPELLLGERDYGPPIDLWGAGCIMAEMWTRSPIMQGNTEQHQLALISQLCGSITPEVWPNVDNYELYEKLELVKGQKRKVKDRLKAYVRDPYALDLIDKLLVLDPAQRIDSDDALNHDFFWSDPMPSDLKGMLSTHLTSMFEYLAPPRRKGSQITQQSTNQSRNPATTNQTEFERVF
T1 sequence (O60563 whole entry partner): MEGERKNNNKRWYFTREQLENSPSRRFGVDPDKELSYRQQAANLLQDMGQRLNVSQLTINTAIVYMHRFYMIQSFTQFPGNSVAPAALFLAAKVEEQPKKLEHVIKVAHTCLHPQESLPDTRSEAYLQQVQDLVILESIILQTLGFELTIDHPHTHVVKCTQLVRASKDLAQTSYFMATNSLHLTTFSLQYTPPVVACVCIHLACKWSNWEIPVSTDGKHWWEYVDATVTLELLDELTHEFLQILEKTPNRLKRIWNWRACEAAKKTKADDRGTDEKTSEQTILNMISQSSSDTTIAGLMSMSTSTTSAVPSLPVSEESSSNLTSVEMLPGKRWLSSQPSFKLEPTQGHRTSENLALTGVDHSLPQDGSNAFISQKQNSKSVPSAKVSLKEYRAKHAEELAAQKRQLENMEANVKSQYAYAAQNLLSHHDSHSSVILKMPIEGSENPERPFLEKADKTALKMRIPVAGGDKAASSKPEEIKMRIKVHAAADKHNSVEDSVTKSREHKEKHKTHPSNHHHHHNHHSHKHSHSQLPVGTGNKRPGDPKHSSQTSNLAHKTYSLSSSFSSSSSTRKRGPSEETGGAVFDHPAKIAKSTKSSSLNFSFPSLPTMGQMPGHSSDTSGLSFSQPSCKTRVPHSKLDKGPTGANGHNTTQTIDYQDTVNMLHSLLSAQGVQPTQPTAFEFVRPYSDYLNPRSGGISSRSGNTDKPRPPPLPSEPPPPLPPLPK

As for `CC(C)Nc1nc([C@@H](C)O)cc2cnc(NC3CC[C@H](C(=O)O)C3)nc12` (stereo in doubt) [Compound 77, (1S,3R)-3-((6-((R)-1-hydroxyethyl)-8-(isopropylamino)pyrido[3,4-d]pyrimidin-2-yl)amino)cyclopentane-1-carboxylic acid], the IC50 in assay [1] is 85 nM.
As to `CC(=O)N[C@@H]1CCC[C@H](C(=O)Nc2cc3c(NC(C)C)nc(C(F)F)cc3cn2)C1` [Compound 1, (1S,3R)-3-acetamido-N-(7-(difluoromethyl)-5-(isopropylamino)-2,6-naphthyridin-3-yl)cyclohexane-1-carboxamide], the IC50 in assay [1] came to 7 nM.
Consider `CC(=O)N[C@H]1CC[C@H](Nc2ncc3cc(C#N)nc(NC(C)C)c3n2)C1` [Compound 46, N-((1S,3S)-3-((6-cyano-8-(isopropylamino)pyrido[3,4-d]pyrimidin-2-yl)amino)cyclopentyl)acetamide], for which the IC50 in assay [2] was 400 to 1000 nM; in assay [3], 3 nM; in assay [4], 72 nM; in assay [5], 271 nM; in assay [6], 33 nM.
In the case of `CC(=O)N[C@@H]1CC[C@H](Nc2cc3c(NC(C)C)nc(C#N)cc3cn2)C1` [Compound 47, N-((1R,3S)-3-((7-cyano-5-(isopropylamino)-2,6-naphthyridin-3-yl)amino)cyclopentyl)acetamide], the IC50 in assay [2] was 400 to 1000 nM; in assay [3] it was 17 nM; in assay [4] it was 1050 nM; in assay [5], 987 nM; in assay [6], 494 nM.
Consider `CC(C)Nc1nc(C(F)F)cc2cnc(N[C@H]3CC[C@@H](N)C3)cc12` [Compound 53, N7-((1S,3R)-3-aminocyclopentyl)-3-(difluoromethyl)-N^1-isopropyl-2,6-naphthyridine-1,7-diamine], for which the IC50 in assay [2] was 400 to 1000 nM; in assay [3], 2 nM; in assay [7], 709 nM; in assay [4] it was 549 nM; in assay [5], 315 nM; in assay [6], 161 nM.
Turning to `COCCN[C@H]1CC[C@H](Nc2cc3c(NC(C)C)nc(C#N)cc3cn2)C1` [Compound 56, 1-(isopropylamino)-7-(((1S,3S)-3-((2-methoxyethyl)amino)cyclopentyl)amino)-2,6-naphthyridine-3-carbonitrile], the IC50 is 400 to 1000 nM in assay [2]; 3 nM in assay [3]; 927 nM in assay [4]; 1110 nM in assay [5]; 656 nM in assay [6].
Turning to `CC(C)Nc1nc(C#N)cc2cnc(N[C@H]3CCCN(C)C3)cc12` [Compound 57, (S)-1-(isopropylamino)-7-((1-methylpiperidin-3-yl)amino)-2,6-naphthyridine-3-carbonitrile], the IC50 in assay [2] was greater than 1000 nM; in assay [3] it was 30 nM; in assay [4], 1760 nM; in assay [5] it was 2520 nM; in assay [6], 427 nM.
On to `CC(C)Nc1nc([C@@H](C)O)cc2cnc(N[C@H]3CC[C@H](NC(=O)CN(C)C)CC3)nc12` [Compound 63, 2-(dimethylamino)-N-((1R,4r)-4-((6-((R)-1-hydroxyethyl)-8-(isopropylamino)pyrido[3,4-d]pyrimidin-2-yl)amino)cyclohexyl)acetamide], for which the IC50 in assay [1] was 14 nM.
With `C[C@@H](O)c1cc2cnc(N[C@H]3CC[C@H](NC(=O)CN(C)C)CC3)nc2c(NCC(C)(C)C)n1` [Compound 64, 2-(dimethylamino)-N-((1R,4r)-4-((6-((R)-1-hydroxyethyl)-8-(neopentylamino)pyrido[3,4-d]pyrimidin-2-yl)amino)cyclohexyl)acetamide], the IC50 in assay [1] worked out at 26 nM.
The same measure, in the same setting: then `CC(=O)N[C@H]1CC[C@H](Nc2ncc3cc([C@@H](C)O)nc(NC(C)C)c3n2)CC1` [Compound 65, N-((1R,4r)-4-((6-((R)-1-hydroxyethyl)-8-(isopropylamino)pyrido[3,4-d]pyrimidin-2-yl)amino)cyclohexyl)acetamide], with 21 nM; and `CC(C)Nc1nc(C#N)cc2cnc(N[C@H]3CC[C@H](NC(=O)CN(C)C)CC3)nc12` [Compound 66, N-((1r,4r)-4-((6-cyano-8-(isopropylamino)pyrido[3,4-d]pyrimidin-2-yl)amino)cyclohexyl)-2-(dimethylamino)acetamide], with 5 nM; and `CC(C)Nc1nc([C@@H](C)O)cc2cnc(N[C@H]3CC[C@H](N4CCN(C)CC4)CC3)nc12` [Compound 67, (R)-1-(8-(isopropylamino)-2-(((1r,4R)-4-(4-methylpiperazin-1-yl)cyclohexyl)amino)pyrido[3,4-d]pyrimidin-6-yl)ethan-1-ol], with 10 nM.
Consider `CC(C)Nc1nc([C@@H](C)O)cc2cnc(NCC3CCN(S(C)(=O)=O)CC3)nc12` [Compound 68, (R)-1-(8-(isopropylamino)-2-(((1-(methylsulfonyl)piperidin-4-yl)methyl)amino)pyrido[3,4-d]pyrimidin-6-yl)ethan-1-ol], for which the IC50 in assay [1] was 82 nM.
Turning to `CC(=O)N1CCC(CNc2ncc3cc([C@@H](C)O)nc(NC(C)C)c3n2)CC1` [Compound 69, (R)-1-(4-(((6-(1-hydroxyethyl)-8-(isopropylamino)pyrido[3,4-d]pyrimidin-2-yl)amino)methyl)piperidin-1-yl)ethan-1-one], in assay [1], the IC50 was determined as 81 nM.
`CC(C)Nc1nc([C@@H](C)O)cc2cnc(NCC3CCCN(S(C)(=O)=O)C3)nc12` (stereo partly drawn) [Compound 70, (1R)-1-(8-(isopropylamino)-2-(((1-(methylsulfonyl)piperidin-3-yl)methyl)amino)pyrido[3,4-d]pyrimidin-6-yl)ethan-1-ol]: the IC50 in assay [1] stood at 61 nM.
As to `CC(=O)N[C@H]1CC[C@H](CNc2ncc3cc([C@@H](C)O)nc(NC(C)C)c3n2)CC1` [Compound 72, N-((1R,4r)-4-(((6-((R)-1-hydroxyethyl)-8-(isopropylamino)pyrido[3,4-d]pyrimidin-2-yl)amino)methyl)cyclohexyl)acetamide], the IC50 in assay [1] is 97 nM.
Consider `CC(C)Nc1nc([C@@H](C)O)cc2cnc(NC[C@H]3CC[C@H](NS(C)(=O)=O)CC3)nc12` [Compound 73, N-((1R,4r)-4-(((6-((R)-1-hydroxyethyl)-8-(isopropylamino)pyrido[3,4-d]pyrimidin-2-yl)amino)methyl)cyclohexyl)methanesulfonamide], for which the IC50 in assay [1] came out at 61 nM.
In the case of `CC(C)Nc1nc([C@@H](C)O)cc2cnc(N[C@H]3CC[C@H](NC4CCOCC4)CC3)nc12` [Compound 74, (R)-1-(8-(isopropylamino)-2-(((1r,4R)-4-((tetrahydro-2H-pyran-4-yl)amino)cyclohexyl)amino)pyrido[3,4-d]pyrimidin-6-yl)ethan-1-ol], the IC50 in assay [1] came to 19 nM.
For the compound `CC(C)Nc1nc([C@@H](C)O)cc2cnc(N[C@H]3CC[C@H](O)CC3)nc12` [Compound 75, (1R,4r)-4-((6-((R)-1-hydroxyethyl)-8-(isopropylamino)pyrido[3,4-d]pyrimidin-2-yl)amino)cyclohexan-1-ol], in assay [1], the IC50 is 36 nM.
As to `CC(C)Nc1nc(C#N)cc2cnc(N[C@H]3CC[C@H](C)NC3)nc12` [Compound 107, 8-(isopropylamino)-2-(((3S,6S)-6-methylpiperidin-3-yl)amino)pyrido[3,4-d]pyrimidine-6-carbonitrile], the IC50 is 400 to 1000 nM in assay [2]; 18 nM in assay [3]; 947 nM in assay [7]; 435 nM in assay [4]; 831 nM in assay [5]; 443 nM in assay [6].
Consider `CC(C)Nc1nc(C#N)cc2cnc(NC3CCNCC3)nc12` [Compound 114, 8-(isopropylamino)-2-(piperidin-4-ylamino)pyrido[3,4-d]pyrimidine-6-carbonitrile], for which the IC50 in assay [2] is 400 to 1000 nM; in assay [3], 9 nM; in assay [7], 216 nM; in assay [4], 1170 nM; in assay [5], 413 nM; in assay [6], 504 nM.
As to `C[C@@H](Nc1nc(C#N)cc2cnc(N[C@H]3CCCNC3)cc12)c1ccccc1` [Compound 147, 1-(((R)-1-phenylethyl)amino)-7-(((S)-piperidin-3-yl)amino)-2,6-naphthyridine-3-carbonitrile], the IC50 is 400 to 1000 nM in assay [2]; 3 nM in assay [3]; 158 nM in assay [7]; 2230 nM in assay [4]; 215 nM in assay [5]; 531 nM in assay [6].
